According to patent US10765680B2, “Combination of a MCL-1 inhibitor and a taxane compound, uses and pharmaceutical compositions thereof” (priority 2017, dated 2020):

Legend:
[1] = MDA-MB-231 breast xenograft model, tolerability and surviving animals; format: in vivo, female nude rats; details: Compound 1 50 mg/kg dosed 0.5 h or 16 h after vehicle for paclitaxel
Description: This study evaluated the antitumor activity and tolerability of Compound 1 in combination with paclitaxel in the triple negative breast cancer (TNBC) model, MDA-MB-231, in female NTac:NIH-Whn nude rats (Taconic).
Compound 1 (free base) and paclitaxel (Sandoz) was used in these studies. Paclitaxel was diluted as per manufacturer's instruction with sterile 5% (w/v) glucose solution to 1.5 mg/ml to administer 7.5 mg/kg in 5 ml/kg dose volume [final ethanol and Cremophor EL concentration was 10 and 15%, respectively in 5% (w/v) glucose solution]. Compound 1 was formulated in a liposomal formulation (Novartis) at 5 mg/ml to administer 50 mg/kg dose in 10 ml/kg dose volume.
MDA-MB-231, a triple negative breast cancer cell line, was obtained from ATCC cell bank. […] Tumor growth was monitored regularly post cell inoculation and animals were randomised into treatment groups (n=7-8) with a mean tumor volume of about 400 mm^3. […]
The vehicle for paclitaxel or paclitaxel was administered once a week (QW) as a slow bolus dose via a caudal vein 0.5 h or 16 h before the vehicle for Compound 1 or Compound 1 itself in liposomal formulation and these were administered by iv infusion over 15 minutes in a caudal vein. […] Tumor volumes were measured using calipers 2-3 times per week. Tumor size, in mm^3, was calculated from: (L×W^2×π/6), where W=width and L=length of the tumor. […]

[2] = system: PDX models resistant to docetaxel; assay: PDX models resistant to docetaxel, efficacy; format: in vivo, female Swiss Nude mice; details: Compound 1 70 mg/kg IV once a week, liposomal formulation
Description: PDX models whose resistance to docetaxel has been confirmed in vivo were tested. Each treatment group included 5 female Swiss Nude mice, aged from 6 to 8 weeks old. The treatment started when xenografts reached a mean tumor volume of ˜120-150 mm^3. Groups of mice were then randomly affected to the different treatments. The number of grafted animals depended on the homogeneity of the tumor growth.
Formulated in a liposomal formulation, Compound 1 was administered intravenously at 70 mg/kg once a week. The formulation had to be prepared extemporaneously. Paclitaxel diluted in 0.9% NaCl was given ip at 25 mg/kg. Paclitaxel was given QW 16 hours before the administration of Compound 1. The administration schedule of the different treatments is defined as follows: […]
Tumor sizes were measured twice a week and weights of individual mice were measured once a week. Treatments were done until the median tumor volume of the most responsive group started to regrow. Mice were followed after the stop of the treatment to compare the time to relapse between the groups. […]

Compound: COc1ccccc1-c1nccc(COc2ccccc2C[C@@H](Oc2ncnc3sc(-c4ccc(F)cc4)c(-c4ccc(OCCN5CCN(C)CC5)c(Cl)c4C)c23)C(=O)O)n1 [Compound 1, (2R)-2-{[(5Sa)-5-{3-chloro-2-methyl-4-[2-(4-methylpiperazin-1-yl)ethoxy]phenyl}-6-(4-fluorophenyl)thieno[2,3-d]pyrimidin-4-yl]oxy}-3-(2-{[2-(2-methoxyphenyl)pyrimidin-4-yl]methoxy}phenyl)propanoic acid]
- tolerability [1]: well tolerated
- inhibition of tumor growth, single agent [2]: insufficient in inhibiting tumor growth
